The NIST ThermoML archive (doi:10.1007/s10765-005-8591-6)

Key:
[1] = xn = mol fraction of the nth substance listed; conditions: Fluid (supercritical or subcritical phases), Constant-volume piezometry, x1 = 1
[2] = Fluid (supercritical or subcritical phases), Constant-volume piezometry

FCF [difluoromethane] + FC(F)C(F)(F)F
[1]
Conditions | mass density [kg/m3]
313.16 K, 3353.7 kPa | 900.17
316.15 K, 4967.1 kPa | 899.97
319.15 K, 6571.4 kPa | 899.77
322.15 K, 8162.4 kPa | 899.57
328.16 K, 11400 kPa | 899.19
334.15 K, 14753 kPa | 898.82
337.15 K, 16580 kPa | 898.63

FCF [difluoromethane]
[2]
Conditions | mass density [kg/m3]
313.16 K, 3353.7 kPa | 900.17
316.15 K, 4967.1 kPa | 899.97
319.15 K, 6571.4 kPa | 899.77
322.15 K, 8162.4 kPa | 899.57
328.16 K, 11400 kPa | 899.19
334.15 K, 14753 kPa | 898.82
337.15 K, 16580 kPa | 898.63

FC(F)C(F)(F)F [pentafluoroethane]
[2]
Conditions | mass density [kg/m3]
258.16 K, 4595.6 kPa | 1403.78
261.15 K, 6579.8 kPa | 1403.47
262.14 K, 7284.6 kPa | 1403.36
267.16 K, 10809 kPa | 1402.84
270.19 K, 13003 kPa | 1402.53
273.15 K, 15076 kPa | 1402.23
275.15 K, 16572 kPa | 1402.04
